Assay results taken from patent US6726940B2, “Use of at least one extract of the genus chrysanthemum for assisting skin and/or hair pigmentation” (Societe L'Oreal S.A., priority 1997, dated 2004).

Columns and labels:
[1] = tested on: co-cultures of normal human keratinocytes/melanocytes; assay: Modulation of melanogenesis: incorporation of 14C thiouracil in co-cultures of keratinocytes/melanocytes; format: cell-based; settings: NHK/NHM co-culture, three days treatment
Protocol: The modulator effect on melanogenesis of the extract obtained by Protocol 2 of Example 1 was tested on co-cultures of normal human keratinocytes/melanocytes according to the method described in the Patent FR 95 06491. The rate of synthesis of melanine is evaluated by the incorporation of thiouracil labelled with C^14. The synthesis of the proteins, determined by the incorporation of tritiated leucine, is taken as an indicator of cytotoxicity and of proliferation. The normal human keratinocytes (NHK) and the normal human melanocytes (NHM) are cultured from preputial skin. The two types of cells are proliferated and stored frozen. […] The proteins are precipitated with the aid of 5% trichloroacetic acid (TCA) and washed in order to eliminate the free radioactivity. […] The radioactivity is counted with the aid of the Wallac counter. The results are expressed as a percentage of the control according to the formula: [formula] in which: ^14CP is the average of the disintegrations per minute (dpm) of ^14C thiouracil in 3 similar wells treated with a product (P); ^3HP is the average of the corresponding ^3H leucine dpm; ^14CT is the average of the ^14C thiouracil dpm in 3 similar control wells (T); ^3HT is the average of the corresponding ^3H leucine dpm.

[2] = tested on: co-cultures of normal human keratinocytes/melanocytes; assay: Synthesis of proteins: incorporation of tritiated leucine, indicator of cytotoxicity and of proliferation; format: cell-based; settings: NHK/NHM co-culture, three days treatment
Protocol: The modulator effect on melanogenesis of the extract obtained by Protocol 2 of Example 1 was tested on co-cultures of normal human keratinocytes/melanocytes according to the method described in the Patent FR 95 06491. The rate of synthesis of melanine is evaluated by the incorporation of thiouracil labelled with C^14. The synthesis of the proteins, determined by the incorporation of tritiated leucine, is taken as an indicator of cytotoxicity and of proliferation.
The normal human keratinocytes (NHK) and the normal human melanocytes (NHM) are cultured from preputial skin. The two types of cells are proliferated and stored frozen. Eight days before the test, each of the cell types is again put into culture in KGM medium from Gibco for keratinocytes (NHK) and into M2 medium from Dr Olsson for melanocytes (NHM) (Olsson, M. J. et al., Lancet (1992) 340, 981). […]
The total radioactivity incorporated in the proteins is estimated by the incorporation of tritiated leucine. […]
After one night, the cells are rinsed in phosphate buffer. The proteins are precipitated with the aid of 5% trichloroacetic acid (TCA) and washed in order to eliminate the free radioactivity. […]
The remainder of the extract, or 950 μl, is filtered through a DEAE Filtermat filter. […] The radioactivity is counted with the aid of the Wallac counter. The results are expressed as a percentage of the control according to the formula: [formula] […]

Compound: O=c1cc(CO)occ1O [kojic acid]
- ^14CThioU. (%/control) ([1]; 0.5 mM): −47 %/control
- ^3HLeu. (%/control) ([2]; 0.5 mM): +4 %/control

Compound: N[C@@H](Cc1ccc(O)cc1)C(=O)O [tyrosine]
- ^14CThioU. (%/control) ([1]; 1 mM): +118 %/control
- ^3HLeu. (%/control) ([2]; 1 mM): −2 %/control
